Ends that are not written are not given here.
How the values were obtained:
[1] = test system: environmental dry eye model; assay: Schirmer tear test (STT) in rabbit environmental dry eye model; format: in vivo, New Zealand white rabbits; settings: rabbits, 21 days treatment
Procedure: The 22-mer CXCL10p peptide (OH-[…]-NH2; SEQ ID NO: 5) was manufactured by PolyPeptide Inc. (San Diego, CA, USA) and purified to >95% purity as a lyophilized powder. The peptide was delivered in three different formulations. For subconjunctival injection, 3 μg of the peptide was dissolved in 100 μl of sterile PBS for weekly injections. For eye drops, 10 μg of the peptide was dissolved in 50 μl of sterile PBS for twice daily drops (BID). For the slow-release formulation, 10 μg of the peptide was dissolved in 50 μl of coacervate for BID inoculation. The control was 50 μl of sterile PBS applied BID. The coacervate is a heparin and PEAD (1:3.6) mixture with each component at a 10 mg/mL concentration in water. The CXCL10p peptide was added at a 1:10 dilution in PBS to the final concentration.
The environmental dry eye model was used to test the CXCL10p peptide. Female New Zealand white rabbits (8 per group) were used at 125-175 days old (weighing 3-5 kg) at the time of induction. For induction of dry eye, all animals were dosed with atropine sulfate (1%) in both eyes (OU) twice daily (BID) for 2-3 weeks prior to test article administration to induce KCS. In addition, humidity in the animals' housing room was maintained at ~20% throughout the study to promote eye dryness. Non-responder animals were removed from the study at the end of the induction phase. […]

[2] = test system: TNFα mRNA in human conjunctival epithelial (HCjE) cells; assay: TNFα-mediated inflammation in HCjE cells (qRT-PCR); format: cell-based
Procedure: Primary human conjunctival epithelial (HCjE) cells were seeded at 40,000 cells per well in a 96 well flat bottom plate. After overnight adhesion in Keratinocyte-Serum Free Media (cK-SFM), the cells were washed and exposed to starvation media (SFM) for a further 24 hours. At this time the cells were exposed to TNFα (5 ng/ml) in the presence or absence of CXCL10p peptide (200 ng/ml). After 4 hours, the cells were harvested and tested for TNFα mRNA levels with GAPDH mRNA as the control for equalization.

[3] = test system: HCjE cells; assay: Goblet cell study: PAS staining of stratified HCjE cells; format: cell-based, human; settings: 200 ng/ml or 2000 ng/ml, compared to vehicle-treated HCjE cells
Procedure: (§1) HCjE cells were maintained in complete keratinocyte serum free medium (KSFM; Invitrogen, Carlsbad, CA) in petri dishes coated with type 1 collagen. When the HCjE cells reached 50% confluence, the culture medium was replaced with growth medium (1:1 DMEM/F12:complete KSFM). When cells reached 100% confluence, the cells were fed with stratification medium (DMEM/F12+10% FBS) with or without the CXCL10p peptide (either 200 ng/ml or 2000 ng/ml). Control cells were fed with the medium supplemented with an equivalent volume of the vehicle (PBS) in which the peptide was dissolved. This medium with or without peptide was replaced every other day for 14 days, after which the cells were either stained with periodic acid-Schiff's (PAS) reagent following the standard protocol, or subjected to total RNA isolation, and qRT-PCR for MUC5AC transcripts with TATA-box binding protein (TBP) as the endogenous control.
To further examine the effects of the CXCR3 activating peptide on goblet cell functioning in vitro, stratified HCjE cells are treated with 200 ng/ml CXCR3 activating peptide, 2000 ng/ml CXCR3 activating peptide, or vehicle. Cells are then stained with periodic acid-Schiff's (PAS) reagent.

[4] = test system: MUC5AC transcripts; assay: Goblet cell study: qRT-PCR for MUC5AC transcripts in HCjE cells; format: cell-based, human; settings: 200 ng/ml or 2000 ng/ml, relative to vehicle only
Procedure: as §1
Control and CXCR3 activating peptide-treated HCjE cells are also examined for expression of MUC5AC transcripts by qRT-PCR.

Substance: OH-PESKAIKNLLKAVHKEMSKRSP-NH2 [CXCL10p peptide]
- amount of aqueous tear (STT) [1]: uncorrected
- reduction of TNFα mRNA levels ([2]; HCjE cells, TNFα 5 ng/ml, peptide 200 ng/ml, 4 hours): approximately one quarter
- TNFα mRNA levels ([2]; HCjE challenged with TNFα, concurrent exposure to peptide): dampened the TNFα mRNA levels in a reproducible and statistically significant manner
- frequency of intense magenta stained cell clusters (goblet cell clusters) [3]: increase in the frequency
- staining with PAS reagent (proteoglycan content) [3]: more intense staining with PAS reagent
- levels of MUC5AC transcripts [4]: increased levels of MUC5AC transcripts

— patent US20260201006A1, “COACERVATE FORMULATIONS OF CXCR-ACTIVATING PEPTIDES FOR CONTROLLED RELEASE IN OPHTHALMIC AND TOPICAL TREATMENTS” (University of Pittsburgh - Of the Commonwealth System of …, priority 2022, published 2026)
